Source: BindingDB's records for doi:10.1016/j.bioorg.2016.05.004 (Universidade De Evora, 2016)

Key:
[1] = target: Acetylcholinesterase (Electrophorus electricus, UniProt O42275); assay: EeAChE Inhibition Assay
Procedure: The inhibition assay of these compounds for AChE (electrophorus electricus) and BuChE (equine serum) were determined by the spectroscopic method described by Ellman et al. which was adapted for 96-well microplates. 25 The standard compound used was galantamine. A 75 μL of different concentrations of the sample was dissolved in buffer with a maximum of 10% DMSO, 25 μL of ATCI (15 mM), and 125 μL of DTNB 3 mM were added to the wells followed by 25 μL of 0.3 U/mL AChE. The velocity was measured by the increase in the absorbance at 405 nm during 1 min time interval at 25 C in a BIO-TEK ELX800G microplate reader (using Gen5 v.1.05 software).

[2] = target: Carboxylic ester hydrolase (Equus caballus, UniProt Q9N1N9); assay: EqBuChE Inhibition Assay
Chain of Carboxylic ester hydrolase (Q9N1N9 whole entry): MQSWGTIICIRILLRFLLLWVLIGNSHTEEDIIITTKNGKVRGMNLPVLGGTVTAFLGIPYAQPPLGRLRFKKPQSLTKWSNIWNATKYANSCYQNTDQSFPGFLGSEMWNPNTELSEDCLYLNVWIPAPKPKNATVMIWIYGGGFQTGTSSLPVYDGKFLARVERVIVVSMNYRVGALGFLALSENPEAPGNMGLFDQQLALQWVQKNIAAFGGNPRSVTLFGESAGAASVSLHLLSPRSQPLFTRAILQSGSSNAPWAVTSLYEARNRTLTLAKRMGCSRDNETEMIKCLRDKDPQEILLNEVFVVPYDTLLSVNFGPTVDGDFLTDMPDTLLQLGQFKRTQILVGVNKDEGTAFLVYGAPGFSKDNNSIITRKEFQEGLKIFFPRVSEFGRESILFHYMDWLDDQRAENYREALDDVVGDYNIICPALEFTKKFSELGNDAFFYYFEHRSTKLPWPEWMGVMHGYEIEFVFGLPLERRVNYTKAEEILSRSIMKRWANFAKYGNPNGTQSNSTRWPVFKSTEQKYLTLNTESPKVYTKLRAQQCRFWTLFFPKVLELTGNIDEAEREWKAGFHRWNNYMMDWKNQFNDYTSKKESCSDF
Procedure: The in vitro BuChE assay was performed similarly to the method described above. A standard enzyme activity curve was drawn for each enzyme using seven different concentrations ranging from 0.1 U/mL to 1 U/mL and enzyme activity was calculated (one unit of enzyme will hydrolyze 1.0 μmol of acetylthiocholine to thiocholine and acetate per minute). Inhibitory activity was calculated from 100 subtracted by the percentage of enzyme activity.

Chain of Acetylcholinesterase (O42275 whole entry): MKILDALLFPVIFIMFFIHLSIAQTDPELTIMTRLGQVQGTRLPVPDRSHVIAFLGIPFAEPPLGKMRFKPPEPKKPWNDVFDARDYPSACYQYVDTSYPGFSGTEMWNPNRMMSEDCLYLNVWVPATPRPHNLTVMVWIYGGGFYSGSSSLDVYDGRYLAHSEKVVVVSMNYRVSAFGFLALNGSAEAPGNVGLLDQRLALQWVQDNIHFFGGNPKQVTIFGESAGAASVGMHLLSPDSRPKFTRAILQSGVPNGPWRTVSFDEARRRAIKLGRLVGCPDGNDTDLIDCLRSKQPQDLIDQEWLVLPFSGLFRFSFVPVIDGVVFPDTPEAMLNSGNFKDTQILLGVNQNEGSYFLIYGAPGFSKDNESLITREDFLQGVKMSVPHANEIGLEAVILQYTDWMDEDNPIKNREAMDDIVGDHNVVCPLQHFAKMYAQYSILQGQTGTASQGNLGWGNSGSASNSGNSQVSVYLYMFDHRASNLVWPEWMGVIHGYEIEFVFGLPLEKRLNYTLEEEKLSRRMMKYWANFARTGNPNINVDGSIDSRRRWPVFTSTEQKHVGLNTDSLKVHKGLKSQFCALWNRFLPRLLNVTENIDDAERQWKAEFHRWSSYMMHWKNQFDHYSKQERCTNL

O=C1NCC(O)c2ccccc21 (stereo unspecified) [Isoquinolin-1(2H)-ones, 1a]
IC50 [1]: 136 µM
IC50 [2]: 807 µM

Cc1ccc2c(c1)C(=O)NCC2O (stereo unspecified) [Isoquinolin-1(2H)-ones, 1b]
IC50 [1]: > 1500 µM
IC50 [2]: 352 µM

Cc1ccc2c(c1)C(O)CNC2=O (stereo unspecified) [Isoquinolin-1(2H)-ones, 1c]
IC50 [1]: > 1500 µM
IC50 [2]: > 1500 µM

O=C1NCC(O)c2cc(Cl)ccc21 (stereo unspecified) [Isoquinolin-1(2H)-ones, 1d]
IC50 [1]: > 1500 µM
IC50 [2]: 226 µM

COc1ccc2c(c1)C(=O)NCC2O (stereo unspecified) [Isoquinolin-1(2H)-ones, 1e]
IC50 [1]: 311 µM
IC50 [2]: > 1500 µM

COC1CNC(=O)c2ccccc21 (stereo unspecified) [Isoquinolin-1(2H)-ones, 1f]
IC50 [1]: 89.5 µM
IC50 [2]: 154 µM

Cc1ccc2c(c1)C(=O)NCCC2O (stereo unspecified) [Isoquinolin-1(2H)-ones, 2b]
IC50 [1]: 536 µM
IC50 [2]: 108 µM

O=C1NCCC(O)c2ncccc21 (stereo unspecified) [Isoquinolin-1(2H)-ones, 4a]
IC50 [1]: 550 µM
IC50 [2]: > 1500 µM

Cc1ccc2c(n1)C(O)CCNC2=O (stereo unspecified) [Isoquinolin-1(2H)-ones, 4b]
IC50 [1]: > 1500 µM
IC50 [2]: > 1500 µM

O=C1NCC(O)c2ccsc21 (stereo unspecified) [Isoquinolin-1(2H)-ones, 5]
IC50 [1]: 1370 µM
IC50 [2]: > 1500 µM

COc1ccc2c3c1O[C@H]1C[C@@H](O)C=C[C@@]31CCN(C)C2 [galantamine]
IC50 [2]: 61.9 µM
